US10287251B2, “Pyrazole derivative or pharmaceutically acceptable salt thereof” (KISSEI PHARMACEUTICAL CO., LTD., priority 2015, dated 2019)

Experiments:
[1] = target: T1, TRPM8 (Rattus norvegicus, UniProt Q8R455); assay: Confirmation test of inhibitory effects on icilin-induced wet-dog shakes; assay type: in vivo; conditions: female SD rats, icilin 1 mg/kg i.p. 1 hour after dosing, shakes counted for 5 minutes
T1 construct: from tissue; host or cells: whole animal, female SD rats (in vivo)
Outline: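 Female SD rats received compounds orally at 0.3 to 10 mg/kg in 5% dimethylacetamide/0.5% methylcellulose. One hour later, icilin (1 mg/kg, i.p., in PEG 400) was given, and wet-dog shakes were counted for 5 min starting 5 min after icilin. Percent inhibition was calculated against vehicle-treated rats.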

[2] = system: overactive bladder induced by acetic acid; assay: Confirmation test of elongation action of micturition interval of overactive bladder induced by acetic acid; assay type: in vivo; conditions: Rattus norvegicus, iv; urethane-anesthetized female SD rats, 1 mg/kg/mL via femoral vein, intravesical 0.25% acetic acid; interval after/before administration x100
Description: Further, TRPM8 inhibitory activity can be evaluated by the efficacy inhibiting the wet-dog shake action which is induced by the administration of Icilin, TRPM8 agonist. Furthermore, an effect on overactive bladder (OAB) can be evaluated by an elongation of micturition interval against overactive bladder induced by acetic acid in accordance with a similar method described in J. Urol., 2001, 166, 1142. Confirmation Test of Elongation Action of Micturition Interval of Overactive Bladder Induced by Acetic Acid Urethane (sigma) was dissolved into pure water by 25% w/v, and female SD rats were anesthetized with 1.25 g/kg urethane by subcutaneous administration. Cannulae were placed in femoral vein and bladder, and the bladder cannula was connected to both a syringe pump and a pressure transducer. Detrusor overactivity was induced by intravesical infusion of 0.25% acetic acid in saline at a rate of 3.6 mL/h, and intravesical pressure was monitored via pressure transducer concurrently. Test compounds were dissolved into a mixture of dimethylacetamide and saline (20:80), and were administered via, the femoral vein. Elongation of micturition interval (%) by test compound was calculated from the following formula: [an average of the three micturition interval after administration/an average of the three micturition interval before administration]×100.

T1 sequence (Q8R455 whole entry): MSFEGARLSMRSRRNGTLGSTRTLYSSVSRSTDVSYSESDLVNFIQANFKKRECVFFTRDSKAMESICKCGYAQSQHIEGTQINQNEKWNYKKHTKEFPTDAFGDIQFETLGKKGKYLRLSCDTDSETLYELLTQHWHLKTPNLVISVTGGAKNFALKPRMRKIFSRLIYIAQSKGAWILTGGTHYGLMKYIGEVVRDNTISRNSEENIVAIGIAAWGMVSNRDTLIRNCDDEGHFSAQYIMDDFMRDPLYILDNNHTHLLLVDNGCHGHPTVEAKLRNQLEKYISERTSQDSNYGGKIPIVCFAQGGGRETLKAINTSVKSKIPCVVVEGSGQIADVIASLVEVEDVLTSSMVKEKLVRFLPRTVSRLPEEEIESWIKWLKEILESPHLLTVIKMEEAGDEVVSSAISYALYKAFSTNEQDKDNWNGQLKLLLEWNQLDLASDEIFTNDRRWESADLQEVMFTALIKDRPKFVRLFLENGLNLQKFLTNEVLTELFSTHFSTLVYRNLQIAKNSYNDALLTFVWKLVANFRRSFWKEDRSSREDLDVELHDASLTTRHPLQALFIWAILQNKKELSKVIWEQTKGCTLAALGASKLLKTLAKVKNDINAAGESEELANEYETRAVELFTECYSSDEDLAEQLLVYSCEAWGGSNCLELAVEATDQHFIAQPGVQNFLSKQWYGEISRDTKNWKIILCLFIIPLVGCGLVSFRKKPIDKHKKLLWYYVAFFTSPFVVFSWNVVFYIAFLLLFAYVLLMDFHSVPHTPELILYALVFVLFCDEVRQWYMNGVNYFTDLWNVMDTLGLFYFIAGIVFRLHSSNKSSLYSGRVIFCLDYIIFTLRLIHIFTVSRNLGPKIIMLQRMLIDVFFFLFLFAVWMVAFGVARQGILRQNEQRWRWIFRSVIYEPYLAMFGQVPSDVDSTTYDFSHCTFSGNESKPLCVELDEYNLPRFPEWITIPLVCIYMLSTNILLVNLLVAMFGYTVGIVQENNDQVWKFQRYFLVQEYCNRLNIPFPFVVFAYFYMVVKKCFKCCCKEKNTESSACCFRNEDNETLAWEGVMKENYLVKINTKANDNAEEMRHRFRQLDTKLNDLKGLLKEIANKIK

| SMILES | % inhibition of Wet-Dog Shake ([1]; oral dose 1 mg/kg) [%] | response vs control in vivo at 1 mg/kg [2] [%] | % inhibition of Wet-Dog Shake ([1]; oral dose 0.3 mg/kg) [%] | % inhibition of Wet-Dog Shake ([1]; oral dose 3 mg/kg) [%] |
| --- | --- | --- | --- | --- |
| O=C(N[C@H](Cn1cccn1)C(F)(F)CO)c1cccc(F)c1-c1cc(-c2ccc(F)cc2)[nH]n1 [Example 50-1, N-[(2R)-3,3-Difluoro-4-hydroxy-1-(1H-pyrazol-1-yl)butan-2-yl]-3-fluoro-2-[5-(4-fluorophenyl)-1H-pyrazol-3-yl]benzamide] | 92 | 217 |  |  |
| O=C(N[C@H](Cn1nccn1)C(F)(F)CO)c1cccc(F)c1-c1n[nH]c(-c2ccc(F)cc2)c1F [Example 56-1, N-[(2R)-3,3-Difluoro-4-hydroxy-1-(2H-1,2,3-triazol-2-yl)butan-2-yl]-3-fluoro-2-[4-fluoro-5-(4-fluorophenyl)-1H-pyrazol-3-yl]benzamide] |  | 150 | 91 |  |
| O=C(N[C@H](Cc1ccccn1)[C@H](O)CO)c1cccc(F)c1-c1cc(-c2ccc(F)cc2)[nH]n1 [Example 1-139] |  | 163 |  |  |
| CC(c1ccccn1)[C@@H](NC(=O)c1cccc(F)c1-c1cc(-c2ccc(Cl)cc2)[nH]n1)[C@H](O)CO (some centres unmarked) [Example 54-16] |  | 132 |  | 86 |
| O=C(N[C@H](Cn1nccn1)[C@H](F)CO)c1cccc(F)c1-c1cc(-c2ccc(F)cc2)[nH]n1 [Example 43-42] | 100 | 158 |  |  |
| O=C(N[C@H](Cn1nccn1)[C@H](F)CO)c1cccc(F)c1-c1n[nH]c(-c2ccc(F)cc2)c1F [Example 43-43] |  | 172 | 93 |  |
| CO[C@H](CO)[C@@H](Cn1cccn1)NC(=O)c1cccc(F)c1-c1cc(-c2ccc(F)cc2)[nH]n1 [Example 27-1, 3-Fluoro-2-[5-(4-fluorophenyl)-1H-pyrazol-3-yl]-N-[(2R,3S)-4-hydroxy-3-methoxy-1-(1H-pyrazol-1-yl)butan-2-yl]benzamide] | 84 | 158 |  |  |
| O=C(N[C@H](Cc1ccccn1)[C@H](F)CO)c1cccc(Cl)c1-c1cc(-c2ccc(F)cc2)[nH]n1 [Example 43-27] |  | 185 |  | 80 |
| CO[C@H](CO)[C@@H](Cn1cccn1)NC(=O)c1cccc(F)c1-c1n[nH]c(-c2ccc(F)cc2)c1F [Example 27-25] | 90 | 167 |  |  |
| O=C(N[C@@H](CCO)Cc1ccccn1)c1cccc(F)c1-c1cc(-c2ccc(F)cc2)[nH]n1 [Example 1-1, 3-Fluoro-2-[5-(4-fluorophenyl)-1H-pyrazol-3-yl]-N-[(2R)-4-hydroxy-1-(pyridin-2-yl)butan-2-yl]benzamide] | 82 | 169 |  |  |
| CO[C@H](CO)[C@@H](Cn1cccn1)NC(=O)c1ccccc1-c1cc(-c2ccc(F)cc2)[nH]n1 [Example 27-7] | 88 | 176 |  |  |
| O=C(N[C@@H](CO)Cc1ccccn1)c1ccccc1-c1cc(-c2ccc(F)cc2)[nH]n1 [Example 1-58] |  | 159 |  | 86 |
| CO[C@H](CO)[C@@H](Cc1ncccn1)NC(=O)c1cccc(F)c1-c1cc(-c2ccc(F)cc2)[nH]n1 [Example 1-227] | 66 | 193 |  |  |
| O=C(N[C@H](Cn1cccn1)[C@H](F)CO)c1cccc(F)c1-c1cc(-c2ccc(F)cc2)[nH]n1 [Example 50-6] | 54 | 197 |  |  |
| CO[C@H](CO)[C@@H](Cc1ccccn1)NC(=O)c1cccc(F)c1-c1cc(-c2ccc(Cl)cc2)[nH]n1 [Example 43-1, 2-[5-(4-Chlorophenyl)-1H-pyrazol-3-yl]-3-fluoro-N-[(2R,3 S)-4-hydroxy-3-methoxy-1-(pyridin-2-yl)butan-2-yl]benzamide] | 90 | 156 |  |  |
| CO[C@H](CO)[C@@H](Cn1cccn1)NC(=O)c1cccc(F)c1-c1cc(-c2ccc(Cl)cc2)[nH]n1 [Example 27-14] | 51 | 195 |  |  |
| NC(=O)[C@H](Cc1ccccc1)NC(=O)c1ccccc1-c1cc(-c2ccccc2)[nH]n1 [Example 1-14] |  | 138 |  |  |
| CO[C@H](CO)[C@@H](Cc1ccccn1)NC(=O)c1cccc(F)c1-c1cc(-c2ccc(F)cc2)[nH]n1 [Example 43-3] |  | 158 | 58 |  |
| O=C(N[C@H](Cn1nccn1)C(F)(F)CO)c1cccc(F)c1-c1cc(-c2ccc(F)cc2)[nH]n1 [Example 50-12, N-[(2R)-3,3-Difluoro-4-hydroxy-1-(2H-1,2,3-triazol-2-yl)butan-2-yl]-3-fluoro-2-[5-(4-fluorophenyl)-1H-pyrazol-3-yl]benzamide] |  | 191 | 99 |  |
| O=C(N[C@@H](CO)Cc1ccccn1)c1cccc(F)c1-c1cc(-c2ccc(F)cc2)[nH]n1 [Example 1-84] | 59 | 183 |  |  |
| CO[C@H](CO)[C@@H](Cc1ncccn1)NC(=O)c1ccccc1-c1cc(-c2ccc(F)cc2)[nH]n1 [Example 1-238] | 82 | 136 |  |  |
| O=C(N[C@@H](CCO)Cc1ncccc1F)c1cccc(F)c1-c1cc(-c2ccc(F)cc2)[nH]n1 [Example 1-125] | 56 | 223 |  |  |
| O=C(N[C@H](Cc1ccccn1)[C@H](O)CO)c1ccccc1-c1n[nH]c(-c2ccc(F)cc2)c1F [Example 1-172] | 100 | 194 |  |  |
